Data: patent publication US20240240226A1, “FLUOROGENIC ASSAY FOR RAPID SCREENING OF BACTERIAL BETA-LACTAMASE ACTIVITY” (The Board of Trustees of the Leland Stanford Junior …, priority 2021, published 2024)

What was measured:
[1] = system: β-lactamases (TEM-1 Bla, AmpC, BlaC, IMP-1, OXA-48, KPC-3); experiment: Detection of recombinant β-lactamases by CDA with esterase and H2O2; format: biochemical; settings: all β-lactamases; esterase 1 μg/mL, H2O2 1 mM, 2 hours, room temperature; 3x SD of negative controls
[2] = system: E. coli/KPC-3; experiment: CDA/H2O2 detection of live E. coli expressing KPC-3 carbapenemase; format: cell-based; settings: CDA 10 μM, H2O2 1 mM, room temperature
Description: FIG. 23 illustrates the fluorescence enhancement of CDA incubated with different concentrations of E. coli expressing KPC-3 carbapenemase in PBS at room temperature; CDA, 10 μM, and H2O2, 1 mM. The signal of CDA in H2O2 was subtracted and the absolute values were plotted. Data were collected on a Tecan Safire microplate reader with excitation at 570 nm and emission at 600 nm. A.U. indicates arbitrary units.
Factoring the 100 μL assay volume, as low as 100 bacteria in one 96 well were detectable with the assay. A concentration of H2O2 at 1-2 mM efficiently oxidized the processed CDA to resorufin inside E. coli. Next, the assay was used to detect E. coli/IMP-1 and E. coli/KPC-3 (FIGS. 3e and 23). E. coli/IMP-1 was detected at […] within 2 hours, and E. coli/KPC-3 could be reliably detected at around 10^5-10^6 c.f.u./mL.
Bacteria growth and assay: E. coli (BL21 or TOP10) transformed to express TEM-1 Bla, IMP-1, and KPC3 were grown in LB medium and induced with 0.2% arabinose for 6-8 h at 30° C., 205 rpm. Colony forming units per milliliter (c.f.u./mL) were determined by measuring the UV absorbance at OD600.
For CDA incubation, 10 μM working solution was prepared freshly by diluting stock solution (1 mM in pure DMSO) in PBS (pH 7.05). A light-safe tube or foil wrap was used to prevent photobleaching.

[3] = system: K. pneumoniae/KPC; experiment: CDA/H2O2 detection of K. pneumoniae expressing KPC carbapenemase; format: cell-based; settings: clinical isolate, H2O2 1 mM, within 2-3 hours
Description: FIG. 3 illustrates the characterization of CDA with HRP, H2O2, E. coli expressing TEM-1 Bla (E. coli/TEM-1) and IMP-1 carbapenemase (E. coli/IMP-1), and K. pneumoniae expressing KPC carbapenemase (K. pneumoniae/KPC). a) Fluorescence enhancement of CDA incubated with different concentrations of E. coli expressing TEM-1 Bla. b) Fluorescence enhancement of CDA; HRP (1 unit/mL), H2O2 (1 μM), and either viable E. coli expressing TEM-1 Bla or bacterial lysate extracted from equal c.f.u. per milliliter. c) Fluorescence enhancement of CDA incubated with different concentrations of E. coli expressing TEM-1 Bla (H2O2, 1 mM). d) Fluorescent intensity of E. coli and E. coli/TEM-1 preincubated with CDA for 20 hours upon addition of H2O2 (500 μM) for 5 min. Error bars represent ±SD, n=3. * p<0.0332; **p<0.0021, ****p<0.0001, ns: not significant. e) Fluorescence enhancement of CDA incubated with different concentrations of E. coli expressing IMP-1 carbapenemase in the presence of H2O2 (1 mM). f) Fluorescence enhancement of CDA incubated with different concentrations of K. pneumoniae expressing KPC carbapenemase (H2O2, 1 mM). […] Data were collected on a Tecan Safire microplate reader with excitation at 570 nm and emission at 600 nm. […]
CDA was also tested for detecting K. pneumoniae. […] Similar to E. coli/KPC-3, 10^6 c.f.u./mL KPC-positive K. pneumoniae could be detected within 2-3 hours. […]

[4] = system: E. coli; experiment: Two-step filtration CDA/H2O2 urine assay, negative control E. coli; format: cell-based; settings: E. coli without β-lactamase, concentrated from urine
Description: (§1) FIG. 4 illustrates the detection of lactam-resistant bacteria in urine samples. a) Illustration of the workflow in bacteria isolation and concentration from a urine sample for detection. The sample is first filtrated by a 5-μm filter to trap cells and large debris followed by a 0.22-μm filter to trap bacteria. The 0.22-μm filter is washed once before PBS/H2O2 (1 mM) is directed through the 0.22-μm filter in the opposite direction with a new syringe to recover the concentrated bacteria for detection in a plate reader. b) Longitudinal monitoring of fluorescence enhancement with CDA and concentrated E. coli, K. pneumoniae, K. pneumoniae/KPC, E. coli/TEM-1, E. coli/IMP-1, E. coli/KPC-3, E. cloacae/IMP, S. marcescens/SME, and E. coli/OXA-48 in the presence of H2O2 (1 mM). Star* indicate clinical isolates. The study was duplicated at room temperature with PBS as the buffer. The signal of CDA alone in PBS containing H2O2 (1 mM) was subtracted and the absolute values were plotted. The working concentration of CDA was 10 μM. Data were collected on a Tecan Safire microplate reader with excitation at 570 nm and emission at 600 nm. A.U. indicates arbitrary units. […]

[5] = system: K. pneumoniae; experiment: Two-step filtration CDA/H2O2 urine assay, negative control K. pneumoniae; format: cell-based; settings: K. pneumoniae without β-lactamase, concentrated from urine
Description: as §1

CC(=O)Oc1ccc2c(c1)Oc1cc(OC(C)=O)ccc1N2C(=O)OCc1ccc(SCC2=C(C(=O)O)N3C(=O)[C@@H](NC(=O)Cc4ccccc4)[C@H]3SC2)cc1 [CDA, 3-(((4-(((3,7-diacetoxy-10H-phenoxazine-10-carbonyl)oxy)methyl)phenyl)thio)methyl)-8-oxo-7-(2-phenylacetamido)-5-thia-1-azabicyclo[4.2.0]oct-2-ene-2-carboxylic acid]
limit of detection of β-lactamases [1]: 1 femtomole | bacteria concentration reliably detected [2]: 10^5-10^6 c.f.u./mL | bacteria concentration detected [3]: 10^6 c.f.u./mL | fluorescent signal of negative control [4]: slightly increased signal | fluorescent signal of negative control [5]: almost undetectable
